Entries after “also recorded” stand apart in the source; their conditions may differ. Like-named read-outs stand apart in the source and are kept apart here.
Experiments:
[1] = system: fetal cartilage explants; assay: Proliferation (BrdU, EdU) in fetal cartilage explants; type: cell-based, human
Protocol: FIGS. 26A-26J. LIF/STAT3/MYC signaling is prominent in fetal articular chondrocytes and can activate a fetal-like phenotype in adult cells. (FIG. 26A) Levels of phospho-STAT3 (pSTAT3) and MYC protein were quantitated in human fetal and adult articular chondrocytes relative to histone H3. (FIG. 26B) Effects of soluble LIF receptor (sLIFR) on MYC and pSTAT3 protein levels on fetal articular chondrocytes after 72 hours. (FIG. 26C) Detection of apoptotic cells using TUNEL staining and flow cytometry analysis of fetal articular cartilage explants cultured in the absence (control) or presence of a MYC (10058-F4) or STAT3 (STATTIC) inhibitor for 24 hours. (FIG. 26D) Quantification of proliferating cells via EdU incorporation in fetal articular cartilage explants and also by flow cytometry analysis for BrdU. Scale bars represent 100 μm. (FIG. 26E) Assessment of metabolic activity of human fetal articular chondrocytes cultured in the presence or absence of MYC or STAT3 inhibitors. (FIG. 26F) Migration capacity of fetal articular chondrocytes was assessed using a Transwell® assay in the absence or presence of MYC and STAT3 inhibitors. (FIG. 26G) Protein levels of MYC and pSTAT3 were measured in adult human articular chondrocytes with and without incubation with LIF. […] (FIG. 26H) Migratory capacity of adult human articular chondrocytes in a Transwell® assay measured in the presence or absence of LIF. […]

[2] = system: fetal BMPR1B+ chondrocytes; assay: Clonogenic potential of fetal chondrocytes; type: cell-based, human
Text: FIGS. 12A-12D. […] Cell sorting results for control (FIG. 12A), p-STAT3 inhibitor (FIG. 12B) and c-MYC inhibitor (FIG. 12C). y-axis: FSC (forward scatter). x-axis: increasing concentration of Annexin V-FITC. (FIG. 12D) Histogram depicting % clonogenic cells (fetal BMPR1B+ chondrocytes) under: control, p-STAT3 and c-MYC inhibitor conditons.
To test the ability of LIF to stimulate LIFR^+ cells and cause their activation in situ, we exposed human adult articular cartilage cells to high doses of LIF for 72 hours (FIG. 5A).
For clonal assays cartilage cells were sorted by FACS and deposited into 96-well culture plates at 1 cell/well in DMEM/F12 culture medium supplemented with 1% FCS with or without LIF or RCGD 423. After 4 weeks clones (colonies with 50 cells or more) were counted using light microscopy in at least 300 wells for each culture condition.

[3] = system: fetal articular cartilage explants; assay: Apoptosis / survival in fetal articular cartilage explants (TUNEL, flow cytometry); type: cell-based, human; settings: for fetal chondrocyte survival: Annexin V-FITC cell sorting; for apoptotic cells: fetal cartilage explants, inhibitor 24 hours
Protocol: FIGS. 26A-26J. LIF/STAT3/MYC signaling is prominent in fetal articular chondrocytes and can activate a fetal-like phenotype in adult cells. (FIG. 26A) Levels of phospho-STAT3 (pSTAT3) and MYC protein were quantitated in human fetal and adult articular chondrocytes relative to histone H3. (FIG. 26B) Effects of soluble LIF receptor (sLIFR) on MYC and pSTAT3 protein levels on fetal articular chondrocytes after 72 hours. (FIG. 26C) Detection of apoptotic cells using TUNEL staining and flow cytometry analysis of fetal articular cartilage explants cultured in the absence (control) or presence of a MYC (10058-F4) or STAT3 (STATTIC) inhibitor for 24 hours. (FIG. 26D) Quantification of proliferating cells via EdU incorporation in fetal articular cartilage explants and also by flow cytometry analysis for BrdU. Scale bars represent 100 μm. (FIG. 26E) Assessment of metabolic activity of human fetal articular chondrocytes cultured in the presence or absence of MYC or STAT3 inhibitors. (FIG. 26F) Migration capacity of fetal articular chondrocytes was assessed using a Transwell® assay in the absence or presence of MYC and STAT3 inhibitors. (FIG. 26G) Protein levels of MYC and pSTAT3 were measured in adult human articular chondrocytes with and without incubation with LIF. Data are shown normalized to histone H3. (FIG. 26H) Migratory capacity of adult human articular chondrocytes in a Transwell® assay measured in the presence or absence of LIF. (FIG. 26I) Single adult human articular chondrocytes were cultured with or without LIF for 5 weeks to allow detection of colony-forming cells. (FIG. 26J) Explants of adult pig articular cartilage were incubated with EdU in the presence or absence of LIF to detect proliferating cells. Scale bars represent 25 μm.
To assess the functional consequences of LIF signaling, explants of fetal cartilage were cultured with inhibitors of MYC or STAT3 (Schust et al., 2006) and then TUNEL stained; flow cytometry was used to quantitate the results of parallel experiments. […] MYC activity has been documented previously in cancer cell lines to regulate mitochondrial function (Fan et al., 2010). […]
TdT-mediated dUTP nick-end labeling (TUNEL) or EdU assays were performed by using in situ cell death detection kit (TUNEL, Roche Diagnostics GmbH, Germany) or Click-iT® Assay Kit obtained from Invitrogen (Carlsbad, Calif.), respectively, as described in the manufacturer's protocol. […] After staining sections were analyzed using fluorescent microscopy. Apoptosis was evaluated by flow cytometry with a Fortessa (BD Biosciences, San Jose, Calif.) cytometer using the Annexin V-FITC (Miltenyi Biotec, San Diego, Calif.) antibody. […]

[4] = system: human fetal articular chondrocytes; assay: Cellular metabolism (Seahorse), human fetal articular chondrocytes; type: cell-based
Protocol: The mitochondrial assay cellular oxygen consumption and mitochondrial function was carried out to measure basal respiration using XF24 instrument (Seahorse Biosciences) according to manufacturer instructions. Tested cells (100,000 cells per well) we plated into 24-well test plates 48 hours prior to experimentation. Oxygen consumption rates and extracellular acidification rates were measured every 10 minutes for up to 60 minutes (Rate 1-6).

[5] = system: BMPR1B+ chondrocytes; assay: Retention of BMPR1B+ chondrocytes in culture (flow cytometry); type: cell-based, pig
Protocol: FIG. 35. RCGD 423 Preserves BMPR1B+ Chondrocytes in Culture. Adult pig chondrocytes were cultured in the presence of various cytokines or RCGD 423 and the number of cells expressing BMPR1B were quantitated using flow cytometry. Know mitogens for cartilage, including PDGF-BB and FGF2, promoted dramatic loss of BMPR1B^+ cells. In contrast, RCGD 423 and LIF acted to maintain cells with the BMPR1B+ phenotype.
BMPR1B+LIFR+ human adult articular chondrocytes were sorted using FACS and deposited in 96-well culture plates at density 10,000 cells per well in DMEM/F12 culture medium (Invitrogen) supplemented with 1% FBS. Growth factors or RCGD 423 were added at the time of plating. After 1, 3 and 7 days cultures were re-analyzed with FACS using an antibody against BMPR1B.

[6] = system: MAPK, AKT, NF-κB pathways; assay: Western blot of MAPK, AKT and NF-κB signaling in adult pig articular chondrocytes; type: cell-based; settings: 24 hours
Protocol: (§1) FIGS. 30A-30B. […] (FIG. 30A) Adult pig articular chondrocytes were cultured for 24 hours with the indicated cytokines or RCGD 423 and the levels of pSTAT3 and MYC were measured with respect to histone H3. Representative data for other proteins in the MAPK (p38 and MEK1/2), AKT (phospho-AKT; pAKT) or NF-KB (NF-KB p65) are also shown. (FIG. 30B) Levels of transcription of genes indicative of a catabolic response were determined via quantitative PCR in adult pig articular chondrocytes treated with OSM, IL-6, TNF-α, LIF or RCGD 423. Data are represented at mean±SD.
(§2) Cartilage degeneration is generally considered a feed-forward process, in which small losses of chondrocytes result in microenvironmental changes including induction of an inflammatory response and other pro-catabolic events (Hunziker, 2002). In turn, these alterations in the joint milieu promote production of matrix degrading proteins including MMPs (collagenases) and proteins of the ADAMTS family (aggrecanases). LIF has been implicated in promoting this cycle of matrix destruction during the pathogenesis of osteoarthritis (Hui et al., 2000; Lotz et al., 1992), although its role in this process has been controversial. In order to better understand the mechanism of action of LIF, RCGD 423 and known pro-inflammatory cytokines in the promotion of degeneration, we stimulated adult pig articular chondrocytes with these molecules and quantitated the levels of activated downstream proteins that mediate the cellular signaling response (FIG. 30A).
(§3) Treated and non-treated ells were lysed in RIPA Lysis and Extraction Buffer (Pierce, Rockford, Ill.) containing protease inhibitors (Pierce) followed by sonication with a 15-second pulse at a power output of 2 using the VirSonic 100 (SP Industries Company, Warminster, Pa.). Protein concentrations were determined by BCA protein assay (Pierce). Proteins were resolved with SDS-PAGE utilizing 4-15% Mini-PROTEAN TGX Precast Gels and transferred to Trans-Blot Turbo Transfer Packs with a 0.2-μm pore-size nitrocellulose membrane. The SDS-PAGE running buffer, 4-15% Mini-PROTEAN TGX Precast Gels, Trans-Blot Turbo Transfer Packs with a 0.2-μm pore-size nitrocellulose membrane were purchased from Biorad (Hercules, Calif.). Nitrocellulose membranes were blocked in 5% nonfat milk in 0.05% (v/v) Tween 20 (PBST) (Corning, Manassas, Va.). Membranes were then incubated with primary antibodies phospho-STAT3 (#9131), MYC (#5605), NF-κB p65 (#D14E12), pAKT (#9272) Histone 3 (#9715) from Cell Signaling, (Danvers, Mass.); MEK1/2 (ab70613) and p38 (ab795) from Abcam (Cambridge, Mass.) overnight. After washing in PBS containing 0.05% (v/v) Tween 20 (PBST), membranes were incubated with Goat anti-Rabbit IgG (H+L) Secondary Antibody (Thermo Scientific Rockford, Ill.). After washing, membranes were developed with the Clarity Western ECL Blotting Substrate (Hercules, Calif.).

[7] = system: MMP13, ADAMTS4 and ADAMTS5; assay: Quantitative PCR of catabolic genes in adult pig articular chondrocytes; type: cell-based
Protocol: as §1, §2
Total RNA was extracted using RNeasy Micro Kit (QIAGEN, Valencia, Calif.) according to the manufacturer's protocol. Quantitative reverse transcription PCR was performed using Bio-Rad T100 Thermal Cycler (Bio-Rad, Hercules, Calif.). Primer sequences are available upon request.

[8] = system: pSTAT3 and MYC; assay: Western blot of pSTAT3 and MYC in adult pig articular chondrocytes; type: cell-based; settings: for levels of MYC / levels of pSTAT3: adult pig articular chondrocytes, treated vs untreated, relative to histone H3
Text: Only early passages of chondrocytes (passage 0-2) were used for experimentation to avoid de-differentiation and loss of cartilage phenotype (Wu et al., 2014). Cartilage explants were made using 1, 2 or 8 mm biopsy punch and wet weight of each explant determined prior to experimentation. For cell isolation cartilage tissue was digested as described previously (Wu et al., 2015). Postnatal paraffin embedded joint and growth plate specimens were kindly donated by Dr Marcel Karperien from the University of Twente (Netherlands) and Dr Nick Bernthal from University of California Los Angeles. All donated material was anonymous and carried no personal identifiers. Cell culture reagents were purchased from Life Technologies, Inc. (Grand Island, N.Y.). Growth factors LIF, OSM, IL-6, TNF-α, IL-1β were purchased from Life Technologies, Inc (Grand Island, N.Y.). STATTIC, 10058-F4, SCl44 hydrochloride, and CP-690550 were purchased from Sigma Aldrich (St. Louis, Mo.). RCGD 423 (N-(4-Bromophenyl)-4-phenyl-1,3-thiazol-2-amine) was synthesized and provided by MolPort (Riga, Latvia). Fetal, adult and pig chondrocytes were cultured in DMEM F12 medium containing 10% (vol/vol) fetal bovine serum and 1% Penicillin-Streptomycin (vol/vol) at 37° C. in a humidified atmosphere of 95% aid and 5% CO2. Media was replenished with DMEM F12 medium containing 1% (vol/vol) fetal bovine serum and 1% Penicillin-Streptomycin (vol/vol) once treatments were added. For 3-dimensional (3D) cell cultures adult human articular chondrocytes were incubated with or without RCGD 423 using 10% solution of Mebiol® hydrogel from Cosmo Bio (Carlsbad, Calif.) in X-vivo 15 serum free medium from Lonza (Walkersville, Md.) as described previously (Wu et al., 2014).
as §3

Molecule | incorporation of BrdU and EdU [1] | clonogenic / clonal potential of fetal chondrocytes [2] | fetal chondrocyte survival [3] | apoptotic cells [3] | glycolysis [4] | activation of AKT [6] | activation of the MAPK pathway [6] | transcription of matrix degrading enzymes (MMP13, ADAMTS4 and ADAMTS5) [7] | levels of MYC [8] | levels of pSTAT3 [8] | also measured
CCc1ccc(/C=C2/SC(=S)NC2=O)cc1 [10058-F4] | greatly reduced | markedly reduced | markedly reduced | strongly significant increases | unaffected | – | – | – | – | – | –
O=[N+]([O-])c1ccc2c(c1)S(=O)(=O)C=C2 [STATTIC] | greatly reduced | dramatically reduced | markedly reduced | strongly significant increases | unaffected | – | – | – | – | – | clonogenic / clonal potential of fetal chondrocytes ([2]; listed as p-STAT3 inhibitor): markedly reduced
FGF2: known mitogen for cartilage | – | – | – | – | – | – | – | – | – | – | BMPR1B+ chondrocytes in culture [5]: dramatic loss
IL-6: IL-6 family cytokine | – | – | – | – | – | stimulated the activation | stimulated the activation | neither cytokine resulted in substantial transcriptional upregulation | increase | increase | –
TNF-α | – | – | – | – | – | strong activation | strong activation | upregulation | inhibit accumulation | inhibit accumulation | NF-κB protein [6]: increased; increases in pSTAT3 and MYC in the presence of RCGD 423 ([8]; co-stimulation of cytokine and RCGD 423): completely suppressed; also recorded: prevents the increases

Reference: patent US11072592B2, “Small molecules that enable cartilage rejuvenation” (The Regents of the University of California, priority 2015, dated 2021)
